Laboratory results reported in the supplement of paper PMC8837787.

Test system: Saccharomyces cerevisiae ABC16-Green Monster
Test: growth inhibition at single dose (up to 150 µM), below the 70% cut-off for dose-response; higher = more potent
Settings: 18 h; 30 °C; YPD
Method in brief: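 Percent growth inhibition is the reported value. Drug-sensitive S. cerevisiae ABC16-Green Monster cultures in log phase (OD600 0.1–0.2), 200 µl per well in 96-well plates, received each library compound once at 150 µM in biological duplicates, with untreated cultures run alongside. Growth was followed by OD600 at 0 h and after 18 h at 30 °C. Dose-response was not done for compounds below 70% in both replicates.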

Compound	growth inhibition at single dose [%]
CC(=O)NCC1CN(c2ccc(-c3ccc(CO)cc3)c(F)c2)C(=O)O1 (stereo unspecified)	< 70
CCOc1ccc(Nc2c3ccccc3nc3ccccc23)cc1	< 70
CC(=O)NCC1CN(c2ccc(-c3ccc(CNCc4cn[nH]n4)cc3)c(F)c2)C(=O)O1 (stereo unspecified)	< 70
Cc1cnc(NC(=O)c2ccc(C3SCCS3)cc2)s1	< 70
COCc1nn2c3c(nnc2c1-c1ccccc1)C(=O)CC(c1ccccc1)C3 (stereo unspecified)	< 70
COc1ccc(-c2cn3c(C(=O)Nc4ccccc4Cl)c(-c4ccccc4)c4c3n2CCCC4)cc1	< 70
CC(Oc1ccc2ccc(=O)oc2c1)C(=O)N1CCc2ccccc21 (stereo unspecified)	< 70
CCOc1cc(CNC(C)C(O)c2ccccc2)cc(Cl)c1OCC (stereo unspecified)	< 70
Cc1ccc(O)c(C(=O)NCCC(C)C)c1	< 70
CC1CC1C(=O)NC1CCN(CC2(c3ccccc3)CCCCC2)CC1 (stereo unspecified)	< 70
Cc1ccc(-c2cc3nc4c(c(O)n3n2)CCCC4)cc1	< 70
CNC(=O)c1cc(S(=O)(=O)N2CCN(c3ccccn3)CC2)cs1	< 70
CC1CC(C)CN(C(=O)c2ccc(Cl)cc2Cl)C1 (stereo unspecified)	< 70
COc1ccc(C)cc1N1CC(C(=O)Nc2nc3ccccc3[nH]2)CC1=O (stereo unspecified)	< 70
CCS(=O)(=O)N(Cc1ccco1)Cc1cc2ccc(C)cc2nc1O	< 70
CC1(COc2ccc(N3CCC(Oc4ccc(OC(F)(F)F)cc4)CC3)cc2)Cn2cc([N+](=O)[O-])nc2O1 (stereo unspecified)	< 70
CC(=O)c1c(C)[nH]c(C(=O)Nc2nc3ccccc3[nH]2)c1C	< 70
CCOC(=O)C1CCN(C(=O)CN2C(=O)c3ccccc3C2c2c[nH]c3ccccc23)CC1 (stereo unspecified)	< 70
O=[N+]([O-])c1cn2c(n1)OC[C@@H](OCc1ccc(OC(F)(F)F)cc1)C2	< 70
Nc1ncnc2c1c(-c1cnc3ccccc3c1)nn2CC1CCNCC1	< 70
N#C/C(C(=O)c1ccc([N+](=O)[O-])s1)=C1\Nc2ccccc2S1	< 70
CCNC(=O)C(C)NC(=O)c1cc(-c2ccccc2)nc2c1cnn2Cc1ccccc1Cl (stereo unspecified)	< 70
CCCCOC(=O)Nc1cc2nc(C3CCCCC3)[nH]c2cc1N1CCCC1	< 70

Compound	growth inhibition at single dose [%]
CN1CCN(S(=O)(=O)c2ccc(-c3ccc4c(Nc5ccc6nn[nH]c6c5)ccnc4c3)cc2)CC1	< 70
Cc1cc(/C=C/C(=O)Nc2nccs2)c(C)n1-c1ccccc1	< 70
C=CCc1c(C)nc2ccccc2c1O	< 70
CC1=C(CC(=O)c2cccc([N+](=O)[O-])c2)C(=O)c2ccccc2C1=O	< 70
CC(C)n1ncc2cc(C(=O)Nc3nc4c(s3)CCCC4)cnc21	< 70
COc1ccc(CN2CCN(C(=O)c3ccc(-n4cccn4)cc3)CC2)cc1F	< 70
Cc1ccc(/C=C2\CCc3c2nc2ccccc2c3C(=O)OCC#N)cc1	< 70
Cc1cccc(C2CC(=O)c3cnn(-c4nc(C)cc(C)n4)c3C2)c1 (stereo unspecified)	< 70
CCOC(=O)c1c(C)[nH]c(C(=O)Nc2ncccc2C)c1C	< 70
Cc1c(C)n(CCCO)c2ncn3nc(-c4ccc(F)cc4)nc3c12	< 70
Nc1ncc(Br)cc1-c1nc2cc(Cl)cnc2[nH]1	< 70
OC1CCCCC1C1(NC(=S)Nc2ccccc2)CCCCC1 (stereo unspecified)	< 70
C[C@@H]1[C@H](O)[C@@H](C)/C=C/C=C/C=C/C=C/C=C/C=C/C=C/[C@H](O[C@@H]2O[C@H](C)[C@@H](O)[C@H](N)[C@@H]2O)C[C@@H]2O[C@](O)(C[C@@H](O)C[C@@H](O)[C@H](O)CC[C@@H](O)C[C@@H](O)CC(=O)O[C@H]1C)C[C@H](O)[C@H]2C(=O)O	< 70
O=[N+]([O-])c1ccc(C=NNc2nc3ccccc3[nH]2)cc1	< 70
CC(C(=O)NC(N)=O)N(C)Cc1ccc(OCc2ccc(Cl)cc2)cc1 (stereo unspecified)	< 70
O=C(NC(c1ccccc1)c1ccc2cccnc2c1O)c1ccccc1 (stereo unspecified)	< 70
CCN(CC)CCn1c(=N)n(CC(O)c2ccc(Cl)c(Cl)c2)c2ccccc21 (stereo unspecified)	< 70
COc1cncc(-c2cncc(N3CCN(c4ccncc4)CC3)n2)c1	< 70
COc1cccc(NC(=O)c2c(NC(=O)c3cccnc3)sc3c2CCC3)c1	< 70
CC(=O)O[C@H]1CC[C@]2(C)C3CC[C@]4(C)C(C5=CC(=O)OC5)CC[C@]4(O)C3CC[C@@H]2C1 (stereo partly specified)	< 70
CCC(=O)c1cn(S(=O)(=O)c2ccc(C)cc2)c2ccccc12	< 70
COc1ccc(CCNC(=O)c2cc(S(=O)(=O)N3CC(C)CC(C)C3)ccc2Sc2ccc(F)cc2)cc1OC (stereo unspecified)	< 70
CCOC(=O)c1[nH]c(C)c(C(=O)OCC(=O)Nc2ccc(Cl)cn2)c1C	< 70

Compound	growth inhibition at single dose [%]
Cc1cc(C)cc(COc2ccc3c(C)c(CCC(=O)O)c(=O)oc3c2C)c1	< 70
Cc1cc(NC(=O)c2ccc(S(=O)(=O)N(Cc3ccccc3)C(C)C)cc2)no1	< 70
Cc1nc2ccccc2c(O)c1CC=C(Cl)Cl	< 70
CC[C@H](CO)NCCN[C@H](CC)CO	< 70
Cc1nc(-c2ccc(CCNc3ncnc4sccc34)cc2)cs1	< 70
OC(CNC1CCCCC1)Cn1c2ccccc2c2ccccc21 (stereo unspecified)	< 70
O=C(Nc1ccc(N2CCN(Cc3ccccc3)CC2)cc1)c1cccs1	< 70
O=C(CCl)NCCOc1ccc(Cl)cc1Cl	< 70
CNc1cc(C)nc(C2CN(C(=O)c3n[nH]c4ccccc34)CCO2)c1 (stereo unspecified)	< 70
O=C(Nc1ccsc1C(=O)NC1CCCCC1)c1ccc(F)cc1	< 70
CCCCN(CCCC)c1c(C#N)cc(S(=O)(=O)Nc2ccccc2)cc1C#N	< 70
COc1ccc(CNc2ncnc3ccccc23)cc1	< 70
CCc1ccc(/C=C/c2ccc3cccc(O)c3n2)cc1	< 70
COC(=O)c1ccccc1NC(=O)/C=C/c1ccc(N2CCCS2(=O)=O)cc1	< 70
Cc1cnc(NC(=O)c2ccc(N(C)C3CCCCC3)cc2)s1	< 70
Cc1cc(C(=O)COC(=O)c2ccccc2O)c(C)n1CC1CCCO1 (stereo unspecified)	< 70
COc1ccc(NC2=NC(=O)/C(=C/c3cc(C)n(-c4cccc(Cl)c4Cl)c3C)S2)cc1	< 70
COc1cccc(-c2csc(-c3nnc4n3-c3ccccc3SC4)n2)c1	< 70
CC(=O)c1c(C)[nH]c(C(=O)Nc2ccc3ccccc3n2)c1C	< 70
Cc1ccc(C)c(-c2csc(Nc3ccc(C)c(C)c3)n2)c1	< 70
COc1cc(CNC(=O)c2scnc2C)ccc1OC1CCCC1	< 70
CC(=O)Nc1ccc(NC(=O)c2cc(-c3cc(Cl)ccc3O)[nH]n2)cc1	< 70
CC(=O)N(CCN(C(=O)c1ccc(F)cc1)c1ccccc1)c1ccccc1	< 70

Compound	growth inhibition at single dose [%]
CNc1snc(C)c1C(=O)OCc1coc(-c2cccs2)n1	< 70
Cc1nc(C(=O)N2CCc3c(c(C(=O)NCc4ccccn4)nn3CCc3ccccc3)C2)cs1	< 70
CNc1snc(C)c1C(=O)OCCOc1ccccc1C(C)=O	< 70
COc1ccc(N2CCN(C(CNC(=O)CC(C)(C)C)c3ccc4c(c3)OCO4)CC2)cc1 (stereo unspecified)	< 70
O=C(NCc1nnc2n1CCCCC2)c1ccc(-c2ccc(F)cc2)o1	< 70
O=C(Nc1ccc(-c2nc3ccccc3[nH]2)cc1)c1ccc(Cl)c(Cl)c1	< 70
Nc1nc(Nc2cccc(F)c2)nc2ccccc12	< 70
CSc1nc2nc(C)c(CCC(=O)N(CC(F)(F)F)C(C)C3CC3)c(C)n2n1 (stereo unspecified)	< 70
C[n+]1c2ccccc2nc2ccc(NCCO)cc21	< 70
Cc1ccc(Oc2c(C)[nH]c(-c3ccccc3)nc2=O)cc1	< 70
CC(C)(C)C(=O)Nc1ccc(C(=O)Nc2cccc(-c3nc4ccccc4[nH]3)c2)cc1	< 70
CCN(CC)S(=O)(=O)c1ccc(Cl)c(C(=O)Nc2ccc3nc(C)sc3c2)c1	< 70
COc1cc(C2=NCCN2)ccc1-c1cn(-c2cccc(C3=NCCN3)c2)nn1	< 70
CO[C@@H]1CN(c2ccc(C#CC3(O)CN4CCC3CC4)c(Cc3ccccc3)n2)C[C@H]1O (stereo partly specified)	< 70
CCn1c(SCC(=O)Nc2cc(C(F)(F)F)ccc2Cl)nc2ccccc2c1=O	< 70
COc1ccc(-c2nc(N3CCN(C(=O)C4CCCCC4)CC3)c3c4c(sc3n2)CCCC4)cc1	< 70
COC(=O)c1c(C)[nH]c(C2=NNC(=NC3CC3)SC2)c1C	< 70
Cc1cc(N)c(N)cc1C	< 70
Nc1c2c(nc3sc4c(c13)CCCC4)CCCC2	< 70
O=C(Nc1ccc(CN2CCOCC2)cc1)c1ccc(-c2cc(Cl)ccc2Cl)o1	< 70
CN1CCCC1CCO[C@](C)(c1ccccc1)c1ccc(Cl)cc1 (stereo partly specified)	< 70
COc1ccc(S(=O)(=O)Nc2ccc(CN3CCN(C(=O)c4cccc(C#N)c4)CC3)cc2)cc1	< 70
